In patent publication US20100166851A1, “Composition having lipolytic activity, production method thereof and use of the composition” (NUTRACEUTIC ET BUSINESS CONSULTING, priority 2007, published 2010):

Test system: human adipocytes
Experiment: release of Not Esterified Fatty Acids (NEFA) by human adipocytes in suspension (ex-vivo lipolysis)
Assay type: cell-based
Conditions: for NEFA: human adipocytes, 2 hours at 37° C., n=3; for % of the control: NEFA released, 2 hours
Procedure: This experiment has been conducted on human adipocytes isolated from an abdominal plasty of a donor. […] To 540 uL of a suspension of adipocytes in a test medium milieu have been added 60 μL of compound to be tested, and the mixtures have been incubated at 37° C., under stirring, for 2 hours. A final concentration of theophylline in the tested mixture of 1 mM was maintained, starting from a stock solution of 10^−2 M in test medium. Likewise, a final concentration of isoproterenol in the tested mixture of 1 μM was maintained, starting from a stock solution of […] in test medium. A final concentration of caffeine in the tested mixture of 0.5 mM was also maintained, starting from a stock solution of 5 mM in test medium. […] Since the composition according to the invention is a powder, it was diluted in DMSO, on the one hand, and in test medium, on the other hand. The stock solution prepared with DMSO was prepared at 10 mg/mL, i.e. 1% (w/v), for a final concentration of the composition according to the invention in solution in DMSO in the tested mixture of 0.01%. […] A control comprising only the adipocytes in test medium was also prepared. A total of 10 doses were prepared from 10 different fractions with the compound added or not. […] The dose was prepared conventionally by means of a NEFA-C measuring kit. The measured data were processed statistically. Intergroup comparisons were carried out through variance analysis (ANOVA) by means of the Dunnet multiple comparison test.

Cn1c(=O)c2c(ncn2C)n(C)c1=O [Caffeine, caffeine]
NEFA (0.5 mM): 339 µM
release of NEFA, factor with respect to the control (0.5 mM, p<0.01): about 9.5
% of the control (0.5 mM): 941%

CC(C)NCC(O)c1ccc(O)c(O)c1 (stereo not drawn) [Isoproterenol, isoproterenol]
NEFA (1.0 μM): 377 µM
lipolysis stimulation, factor with respect to the control (1 μM, p<0.01): 10
% of the control (1.0 μM): 1048%

Cn1c(=O)c2[nH]cnc2n(C)c1=O [Theophylline, theophylline]
NEFA (1.0 mM): 381 µM
lipolysis stimulation, factor with respect to the control (1 mM, p<0.01): 10
% of the control (1.0 mM): 1057%
